Results as given in ChEMBL document CHEMBL1201862, “PubChem BioAssay data set” (2004).
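Five compound concentrations were applied to cells in 96-well plates for 48 hours; endpoints were derived by simple linear interpolation of the resulting dose-response curve. The concentration for 50% growth inhibition is given as GI50.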 Activity calls are given as the source filed them. Cut-off read from the data, not from the text of the source: active = GI50 up to about 1.1 µM and inactive = higher.

How the values were obtained:
Assay in all cases: growth of human tumour cells (NCI), 48 h
[1] = test system: HCC 2998
[2] = test system: HL-60
[3] = test system: HOP-92
[4] = test system: OVCAR-3
[5] = test system: OVCAR-8
[6] = test system: SF-268
[7] = test system: SF-295
[8] = test system: SF-539
[9] = test system: SK-MEL-5
[10] = test system: SK-OV-3
[11] = test system: SNB-75
[12] = test system: SW-620
[13] = test system: U-251
[14] = test system: HT-29
[15] = test system: SR

SMILES | GI50 [1] | GI50 [2] | GI50 [3] | GI50 [4] | GI50 [5] | GI50 [6] | GI50 [7] | GI50 [8] | GI50 [9] | GI50 [10] | GI50 [11] | GI50 [12] | GI50 [13] | GI50 [14] | GI50 [15]
CC1CC(C2=CC=CCS2)=Nc2ccccc2S1 (configuration not stated) | 80.4 µM (inactive) | > 100 µM (inactive) | 48.4 µM (inactive) | > 100 µM (inactive) | > 100 µM (inactive) | > 100 µM (inactive) | > 100 µM (inactive) | > 100 µM (inactive) | > 100 µM (inactive) | > 100 µM (inactive) | 14.1 µM (inactive) | > 100 µM (inactive) | > 100 µM (inactive) |  | 
CC(C)N(C(=O)C12C3C4C5C3C1(C(=O)N(C(C)C)C(C)C)C5C42)C(C)C (configuration not stated) | > 100 µM (inactive) | > 37.6 µM (inactive) | > 100 µM (inactive) | > 100 µM (inactive) | > 60.5 µM (inactive) | > 100 µM (inactive) | > 100 µM (inactive) | > 100 µM (inactive) | > 100 µM (inactive) | > 100 µM (inactive) | > 100 µM (inactive) | > 52.4 µM (inactive) | > 100 µM (inactive) | > 100 µM (inactive) | 19.1 µM (inactive)
Cc1cccc(C)c1NC(=O)/C(=N/NC(N)=S)C(C)C(=O)c1ccc(Cl)cc1 (configuration not stated) | > 100 µM (inactive) | 93.8 µM (inactive) | > 100 µM (inactive) | > 100 µM (inactive) | > 100 µM (inactive) | > 100 µM (inactive) | > 100 µM (inactive) | > 100 µM (inactive) | > 100 µM (inactive) | > 100 µM (inactive) | > 100 µM (inactive) | > 100 µM (inactive) | > 100 µM (inactive) | 75.9 µM (inactive) | > 100 µM (inactive)
NC1=NN(c2ccccc2)C(=O)C1/C(=N\NC(=O)c1cc2ccccc2cc1O)C(=O)Nc1nc([N+](=O)[O-])cs1 (configuration not stated) | 40.2 µM (inactive) | 8.81 µM (inactive) | 13.7 µM (inactive) | 30.1 µM (inactive) | 19.5 µM (inactive) | 16.7 µM (inactive) | 28.9 µM (inactive) | 23.9 µM (inactive) | 20.3 µM (inactive) | 55.7 µM (inactive) | 18.5 µM (inactive) | 27.9 µM (inactive) | 27.7 µM (inactive) | 32.7 µM (inactive) | 6.78 µM (inactive)
COC1=CC(=O)[C@H]2[C@H](C)C(c3ccccc3)[C@@]2(C)C1=O (some centres not stated) | > 100 µM (inactive) | > 100 µM (inactive) | > 100 µM (inactive) | > 100 µM (inactive) | > 100 µM (inactive) | > 100 µM (inactive) | > 100 µM (inactive) | > 100 µM (inactive) | > 100 µM (inactive) | > 100 µM (inactive) | > 100 µM (inactive) | > 100 µM (inactive) | > 100 µM (inactive) | > 100 µM (inactive) | > 100 µM (inactive)
O=C1/C(=C/c2cc(O)c(O)c(O)c2)Oc2cc(O)cc(OC3OC(CO)C(O)C(O)C3O)c21 (configuration not stated) | 39.2 µM (inactive) | 15.6 µM (inactive) | 3.82 µM (inactive) | 14.9 µM (inactive) | 18.2 µM (inactive) |  | 16.5 µM (inactive) | > 100 µM (inactive) | 13.3 µM (inactive) | 46.1 µM (inactive) | > 100 µM (inactive) | 24.1 µM (inactive) | > 10 µM (inactive) | 23.9 µM (inactive) | 
COC(=O)/C(=C/c1ccc(OC)cc1)C(C(=O)O)=C1CCCC1 | > 100 µM (inactive) | > 100 µM (inactive) | > 100 µM (inactive) |  | > 100 µM (inactive) |  | > 100 µM (inactive) | > 100 µM (inactive) | > 100 µM (inactive) | > 100 µM (inactive) | > 100 µM (inactive) | > 100 µM (inactive) | > 100 µM (inactive) | > 100 µM (inactive) | > 100 µM (inactive)
CC(C)=CCOc1ccc(-c2coc3cc4c(c(O)c3c2=O)C=CC(C)(C)O4)cc1 | 83.6 µM (inactive) | > 100 µM (inactive) |  | 2.13 µM (inactive) | 50.7 µM (inactive) | > 100 µM (inactive) | 49.5 µM (inactive) |  | 0.207 µM (active) |  |  | > 100 µM (inactive) | 38.8 µM (inactive) | > 100 µM (inactive) | > 100 µM (inactive)
CCOc1ccccc1NC(=O)C(=O)Cc1nc2ccccc2s1 | > 100 µM (inactive) | > 100 µM (inactive) | > 100 µM (inactive) | > 100 µM (inactive) | > 100 µM (inactive) | > 100 µM (inactive) | > 100 µM (inactive) | > 100 µM (inactive) | > 100 µM (inactive) | > 100 µM (inactive) | 77.1 µM (inactive) | > 100 µM (inactive) | > 100 µM (inactive) | > 100 µM (inactive) | > 100 µM (inactive)
O=[PH](O)c1cc2c3ccccc3ccc2c2ccccc12 | > 100 µM (inactive) | > 100 µM (inactive) |  | > 100 µM (inactive) | > 100 µM (inactive) | > 100 µM (inactive) | > 100 µM (inactive) | > 100 µM (inactive) | > 100 µM (inactive) | > 100 µM (inactive) | > 100 µM (inactive) | > 100 µM (inactive) | > 100 µM (inactive) | > 100 µM (inactive) | 
CC(=O)/C=C1\CC(=O)Nc2ccccc2N1 | > 100 µM (inactive) | > 100 µM (inactive) | > 100 µM (inactive) |  | > 100 µM (inactive) | > 100 µM (inactive) | > 100 µM (inactive) | > 100 µM (inactive) | > 100 µM (inactive) | > 100 µM (inactive) | > 100 µM (inactive) | > 100 µM (inactive) | > 100 µM (inactive) | > 100 µM (inactive) | 
O=C1C(Cl)C(c2ccccc2)N1n1cnc2ccccc2c1=O (configuration not stated) | > 100 µM (inactive) | > 100 µM (inactive) |  | > 100 µM (inactive) | > 100 µM (inactive) | 85.3 µM (inactive) | > 100 µM (inactive) |  | > 100 µM (inactive) | 74.6 µM (inactive) | 19.4 µM (inactive) | > 100 µM (inactive) | > 100 µM (inactive) | > 100 µM (inactive) | 36.1 µM (inactive)
CC1=C(C(=O)CC(=O)C(=O)Nc2ccc(C)c(C)c2)Sc2ccccc2N1 | > 100 µM (inactive) |  | > 100 µM (inactive) | > 100 µM (inactive) | > 100 µM (inactive) | > 100 µM (inactive) | > 100 µM (inactive) | > 100 µM (inactive) | > 100 µM (inactive) | > 100 µM (inactive) | > 100 µM (inactive) | > 100 µM (inactive) | > 100 µM (inactive) | > 100 µM (inactive) | 
CCOC(=O)C1(C/C=C(/C)Cl)CCCC1=O (configuration not stated) |  | 86.5 µM (inactive) |  | > 100 µM (inactive) | > 100 µM (inactive) | > 100 µM (inactive) | > 100 µM (inactive) | > 100 µM (inactive) | > 100 µM (inactive) | > 100 µM (inactive) | > 100 µM (inactive) |  | > 100 µM (inactive) | > 100 µM (inactive) | 20.7 µM (inactive)
COc1ccc2cc3[n+](cc2c1OC)CCc1cc(O)c(O)cc1-3 |  | > 100 µM (inactive) | > 100 µM (inactive) | > 100 µM (inactive) | > 100 µM (inactive) | > 100 µM (inactive) | > 100 µM (inactive) | > 100 µM (inactive) | > 100 µM (inactive) | > 100 µM (inactive) | > 100 µM (inactive) | > 100 µM (inactive) | > 100 µM (inactive) | > 100 µM (inactive) | 
Cc1ccc2c(c1)CNc1ccc(C)cc1CN2 |  | > 100 µM (inactive) | > 100 µM (inactive) | > 100 µM (inactive) | > 100 µM (inactive) | > 100 µM (inactive) | > 100 µM (inactive) | > 100 µM (inactive) | 62.4 µM (inactive) | > 100 µM (inactive) | 3.19 µM (inactive) | > 100 µM (inactive) | > 100 µM (inactive) | > 100 µM (inactive) | > 100 µM (inactive)
O=C(CC1(O)C(=O)Nc2ccc(Br)cc21)c1ccc(Cl)cc1 (configuration not stated) |  | > 10 µM (inactive) | 35.2 µM (inactive) | > 100 µM (inactive) | 52 µM (inactive) | > 100 µM (inactive) | > 100 µM (inactive) | 50.7 µM (inactive) | > 100 µM (inactive) | > 100 µM (inactive) | 16.3 µM (inactive) | 43.2 µM (inactive) | 27.6 µM (inactive) | 42 µM (inactive) | 
CCOc1ccc(NC(=O)CC#N)cc1 | 6.79 µM (inactive) | > 100 µM (inactive) |  | > 100 µM (inactive) | > 100 µM (inactive) | > 100 µM (inactive) | > 100 µM (inactive) |  | > 100 µM (inactive) | > 100 µM (inactive) | > 100 µM (inactive) | > 100 µM (inactive) | > 100 µM (inactive) | > 100 µM (inactive) | > 100 µM (inactive)
C=CCc1cc(-c2cc(CC=C)c(O)c(CNCCCl)c2)cc(CNCCCl)c1O | 17.3 µM (inactive) | 17.3 µM (inactive) | 10.6 µM (inactive) | 21.4 µM (inactive) | 19.9 µM (inactive) | 22.6 µM (inactive) | 17.5 µM (inactive) |  | 15.3 µM (inactive) |  | 12.3 µM (inactive) | 20.8 µM (inactive) | 16.6 µM (inactive) | 17.4 µM (inactive) | 
CN1C(=O)C(=CN)C(=O)N(C)C1=O | > 100 µM (inactive) | > 100 µM (inactive) | > 100 µM (inactive) | > 100 µM (inactive) | > 100 µM (inactive) | > 100 µM (inactive) | > 100 µM (inactive) |  | > 100 µM (inactive) |  | > 100 µM (inactive) | > 100 µM (inactive) | > 100 µM (inactive) | > 100 µM (inactive) | > 100 µM (inactive)
